Experimental data: patent publication US6835755B1, “Naphthoquinone derivatives and their use in the treatment and control of tuberculosis” (priority 1999, dated 2004)
Converted amounts (≈) assume the structure as drawn.

System: resistant strains of Mycobacterium tuberculosis
Test: microbe, parasite or virus in culture
Assay type: cell-based
Conditions: for ΔGI values of plant extracts: at MIC, mean ± s.d.

Which results are given for `Cc1cc(O)c2c(c1)C(=O)C=CC2=O` [7-methyljuglone, 5-hydroxy-7-methyl-1,4-naphtoquinone]?
ΔGI values of plant extracts (Two drug (isoniazid and rifampicin) resistant strain CCKO28469V): 0 ± 0; MIC (Minimal inhibitory concentration) (Two drug (isoniazid and rifampicin) resistant strain CCKO28469V, radiometric method): 50 µg/mL (≈ 266 µM)

`Cc1cc(O)c2c(c1)C(=O)C(c1c(C)cc3c(c1O)C(=O)C=CC3=O)=CC2=O` [diospyrin, 5,5′ dihydroxy 7,7′ binaphthoquinone] was tested. Which “ΔGI values of plant extracts” value (2 drug resistant strain (res. to isoniazid and rifampicin)) did it give?
Its value is 3.5 mg/mL.

And the “ΔGI values of plant extracts” value (3 drug resistant strain (res. to streptomycin, isoniazid and ethambutol))?
The value was 4 ± 2.12 mg/mL.

What about the MIC (3 drug resistant strain (res. to streptomycin, isoniazid and ethambutol), radiometric method) of the same compound?
Its MIC is 100 µg/mL (≈ 267 µM).

What about the “ΔGI values of plant extracts” value (4 drug resistant strain (res. to streptomycin, isoniazid, rifampicin and ethambutol)) of the same compound?
The value was 5 ± 2.82 mg/mL.

And the MIC (4 drug resistant strain (res. to streptomycin, isoniazid, rifampicin and ethambutol), radiometric method)?
The MIC was 100 µg/mL (≈ 267 µM).

And the “ΔGI values of plant extracts” value (5 drug resistant strain (res to isoniazid, streptomycin, rifampicin, thiacetazone and cyclocerine))?
The value was 10 ± 1.41 mg/mL.

What about the MIC (5 drug resistant strain (res to isoniazid, streptomycin, rifampicin, thiacetazone and cyclocerine), radiometric method) of the same compound?
The MIC was 100 µg/mL (≈ 267 µM).

And the “ΔGI values of plant extracts” value (6 drug resistant strain (res. to isoniazid, rifampicin, ethionamide, terizidone, thiacetazone and ofloxacin))?
The value was 9 ± 2.82 mg/mL.

What about the MIC (6 drug resistant strain (res. to isoniazid, rifampicin, ethionamide, terizidone, thiacetazone and ofloxacin), radiometric method) of the same compound?
Its MIC is 100 µg/mL (≈ 267 µM).

And the “ΔGI values of plant extracts” value (7 drug resistant strain (res to isoniazid, streptomycin, ethambutol, kanamycin, rifampicin, and ethionamide))?
The value was 13.5 ± 3.2 mg/mL.

And the MIC (7 drug resistant strain (res to isoniazid, streptomycin, ethambutol, kanamycin, rifampicin, and ethionamide), radiometric method)?
The MIC was 100 µg/mL (≈ 267 µM).

And the MIC (Mycobacterium tuberculosis)?
Its MIC is 100 µg/mL (≈ 267 µM).
